Columns and labels:
BaF3/p210 cells = assay: Proliferation assay (Alamar Blue), BaF3/p210; format: cell-based, murine; settings: for EC50: Mus musculus, BaF3, fresh media with compound added after 24 h, 24 h further growth, read-out: EC50 (viable cells)
Source text: This cell line consists of engineered murine leukemia cells that ectopically express Bcr-Abl. Parent BaF3 cells require exogenous interleukin 3 (IL3) because IL3 stimulates expression of MCL1, which is required for survival. However, BaF3/p210 cells require no exogenous interleukins but need Bcr-Abl for survival.

HeLa cells = assay: Annexin V-FITC/PI apoptosis assay, HeLa; format: cell-based; settings: 15 or 30 μM, 24 h
Method: (each point is shown as mean+/−s.d. of 2 replicates). Panel A is a bar graph showing the data for HeLa cells (30 μM); Panel B is a bar graph showing the data for K562 (30 μM); Panel C is a bar graph showing the data for K562 (15 μM).
Since K562 cells are dependent upon Bcr-Abl for survival, it was predicted that these cells would also be susceptible to TU compounds. However, K562 cells gave a very weak signal in the Alamar Blue® assay. In lieu of the Alamar Blue assay, an apoptosis assay was used to show susceptibility. This assay uses fluorescein-modified Annexin V to detect phosphatidyl serine (PS) on the cell surface. See Vermes et al., J. Immon. Meth. 184, 39-51 (1995). PS is typically expressed on the inner leaflet of the cell membrane. However in the early stages of apoptosis, PS translocates to the outer leaflet and can be bound by Annexin V. Thus, during apoptosis cells will become greener in the presence of Annexin V-Fluorescine.

G76VUb-GFP in COS1 cells = assay: UbG76V-GFP proteasome assay in COS1 cells; format: cell-based
Method: COS1 cells at approx. 75% confluence in a 48 well plate were transiently transfected with a plasmid encoding G76VUb-GFP using Mirus 2020 reagent. After this time media with either compound in DMSO or 1% DMSO was added to the cells and the cells were incubated for 8 h. After this time, cells were trypsinized, diluted with 1% FBS in PBS (FACS buffer) then centrifuged at 700 g. After this time cells on ice were treated with FACS buffer containing propidium iodide (0.05 mg/mL). The GFP (indicating proteasome activity) and red fluorescence (dye exclusion showing acute toxicity) were subsequently measured by FACS.

Bcr-Abl [1] = assay: Bcr-Abl immunoblot in BaF3/p210 cells; format: cell-based, murine; settings: 4 h
Method: After this time cells were lysed and sonicated in S.D.S. Whole cell lysates were analyzed for Bcr-Abl and tubulin in triplicate. Panel B is a bar graph showing the quantitation of blots in Panel A. Panel C is an image of an immunoblot showing BaF3 cells were treated with various concentrations of TU50 in triplicate for 4 h, and then whole cell lysates were analyzed for Bcr-Abl and tubulin. Panel D is an image of an immunoblot similar to the experiment in Panel C but using TU46. Panel E is an image of an immunoblot similar to the experiment in Panel D but using TU49. Panel F is a plot showing the quantification of blots in Panel C, Panel D, and Panel E.
Proliferation inhibition/apoptosis assays and lysate activity profiling were all consistent with USP9x inhibition. Next, whether cell death in BaF3/p210 cells occurred through degradation of Bcr-Abl was validated. […] Encouragingly, the EC50 for Bcr-Abl degradation was 8±2 μM for TU50, which is within 2 fold of the proliferation inhibition EC50 obtained above (FIG. 7, Panel C).

Bcr-Abl [2] = assay: Bcr-Abl immunoblot in K562 cells; format: cell-based; settings: for decrease in Bcr-Abl: 30 μM, 4 h
Method: After this time cells were lysed and sonicated in SDS. Whole cell lysates were analyzed for Bcr-Abl and tubulin in triplicate. Panel B is a bar graph showing the quantitation of the blots in Panel A. Panel C is a plot showing differing concentrations of TU50 were added to K562 cells and after 4 h the amount of Bcr-Abl was measured in whole cell lysates.

MCL1 = MCL1 immunoblot in BaF3 parent cells; format: cell-based; settings: 15 and 30 μM, 4 h
Source text: Panel A is an image of a immunoblot showing knockdown of MCL-1 by TU46. […] Panel C is a bar graph showing the quantitation of the blots in Panel A and Panel B.
MCL1 is required to sustain growth of many transformed cells and is also regulated by USP9x. […] These findings help to explain why these compounds are toxic to Bcr-Abl independent cancer lines, especially BaF3.

UCHL3 = biological target: T1, UCHL3 (Mus musculus, UniProt Q9JKB1); assay: Cy5-Ub-VME activity profiling of treated BaF3/p210 cells, UCHL3; format: cell-based, murine; settings: 50 μM, 4 h
T1 construct: endogenous in cells; host or cells: BaF3/p210
T1 sequence (Q9JKB1 1-230): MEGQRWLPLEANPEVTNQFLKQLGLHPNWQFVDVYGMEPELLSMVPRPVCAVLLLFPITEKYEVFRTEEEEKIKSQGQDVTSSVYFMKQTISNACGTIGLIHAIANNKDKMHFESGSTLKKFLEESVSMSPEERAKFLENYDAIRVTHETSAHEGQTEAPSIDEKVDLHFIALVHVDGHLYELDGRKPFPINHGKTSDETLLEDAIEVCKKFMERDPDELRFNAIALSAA
Method: FIG. 9 has two panels (A and B) depicting data showing that TUs inhibit DUBs in cells. BaF3/p210 cells were incubated with the stated concentration of compound for 4 h. After this time cells were lysed using beads, lysates were normalized, then exposed to Cy5-Ub-VME for 5 min. After quenching, lysates were resolved by SDS-PAGE, analyzed on typhoon, then stained by Coomassie. Panel A is an image of the SDS-PAGE gel visualized via Typhoon imager. Panel B is an image of the SDS PAGE gel stained with Coomassie.
The increased promiscuity of the inhibitors when the experiment is carried out in cells likely stems from the increased assay time (4 h vs 20 min) coupled with the slow on rates of the inhibitors and their targets.

3T3 = assay: Proliferation assay, 3T3; settings: Mus musculus, NIH3T3, 72 h, read-out: EC50 growth inhibition 3T3
Method: (§1) Proliferation assays for adherent cells were conducted by plating cells at 5%-10% confluence in 96 well plates together with compound or 0.1% DMSO. Cells were allowed to grow for 48 h and then Alamar Blue® was added and number of cells was measured by fluorescence on a microplate reader.

B16-F10 = assay: Proliferation assay, B16-F10; settings: Mus musculus, B16-F10, 72 h, read-out: EC50 growth inhibition B16-F10
Method: as §1

[3] = whole cell lysates sonicated, read-out: EC50 for Bcr-Abl degradation/knockdown

SMILES	growth inhibition of BaF3/p210 cells (BaF3/p210 cells)	selectivity for BaF3/p210 over NIH3T3 cells (BaF3/p210 cells)	selectivity for BaF3/p210 over other cancer lines (BaF3/p210 cells)	EC50 (BaF3/p210 cells) [µM]	apoptosis in HeLa (HeLa cells)	inhibition of the proteasome in G76VUb-GFP assay (G76VUb-GFP in COS1 cells; COS1, 8 h)	GFP signal (G76VUb-GFP in COS1 cells; COS1, at 50 μM)	EC50 (Bcr-Abl [1]; unsonicated, read-out: EC50 for Bcr-Abl knockdown) [µM]	EC50 (Bcr-Abl [1]; [3]) [µM]	decrease in Bcr-Abl (Bcr-Abl [2])	knockdown of MCL1 (MCL1)	effect on UCHL3 (UCHL3)	EC50 (3T3) [µM]	EC50 (B16-F10) [µM]	GFP signal (G76VUb-GFP in COS1 cells; COS1, 8 h)	EC50 (Bcr-Abl [2]; K562, 4 h, read-out: EC50 for Bcr-Abl degradation) [µM]
CC(C)(C)OC(=O)NCCc1ccc(N=C=S)cc1 [TU46]	good growth inhibition	over a ten-fold selectivity	at least a five-fold selectivity	11	no apoptosis was detected	did not inhibit	slight increase in GFP signal	15 ± 7	9 ± 3	four-fold decrease	very effective	relatively unaffected	> 110	70 ± 20	–	–
O=C(NCc1ccc(N=C=S)cc1)OCc1ccccc1 [TU49]	good growth inhibition	–	–	–	no apoptosis was detected	did not inhibit	–	–	9 ± 5	four-fold decrease	not as efficient	relatively unaffected	> 110	~30	decreased the GFP signal	–
CC(C)(C)OC(=O)NCc1cccc(N=C=S)c1 [TU50]	good growth inhibition	over a ten-fold selectivity	at least a five-fold selectivity	16	no apoptosis was detected	did not inhibit	–	–	8 ± 2	four-fold decrease	very effective	relatively unaffected	80 ± 10	85 ± 10	decreased the GFP signal	12

From patent publication US10017463B2, “Inhibitors of deubiquitinating proteases” (Brandeis University, priority 2014, dated 2018)
